According to PubChem BioAssay (NCI):
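All cell lines were grown in 96-well plates and treated with compound for 48 hours. TGI is the concentration that stops growth completely.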

Key:
Experiment in all cases: NCI anticancer screen, dose series, 48 h
HT29 colon = system: HT29 colon
IGROV1 ovarian = system: IGROV1 ovarian
SF-295 CNS = system: SF-295 CNS
MALME-3M melanoma = system: MALME-3M melanoma
EKVX NSCLC = system: EKVX NSCLC
NCI-H522 lung = system: NCI-H522 lung
SK-MEL-5 melanoma = system: SK-MEL-5 melanoma
SN12C renal = system: SN12C renal
OVCAR-4 ovarian = system: OVCAR-4 ovarian
NCI-H23 lung = system: NCI-H23 lung
COLO 205 colon = system: COLO 205 colon
SNB-75 CNS = system: SNB-75 CNS
RXF-631 renal = system: RXF-631 renal
SW-620 colon = system: SW-620 colon
HOP-92 NSCLC = system: HOP-92 NSCLC
A498 renal = system: A498 renal
NCI-H226 lung = system: NCI-H226 lung
DLD-1 colon = system: DLD-1 colon
U251 CNS = system: U251 CNS
KM12 colon = system: KM12 colon
DMS 273 small cell lung = system: DMS 273 small cell lung
SF-268 CNS = system: SF-268 CNS
DMS 114 small cell lung = system: DMS 114 small cell lung
MOLT-4 leukemia = system: MOLT-4 leukemia
XF 498 CNS = system: XF 498 CNS
SNB-78 CNS = system: SNB-78 CNS
OVCAR-8 ovarian = system: OVCAR-8 ovarian
HL-60(TB) leukemia = system: HL-60(TB) leukemia
NCI-H460 lung = system: NCI-H460 lung
HOP-62 NSCLC = system: HOP-62 NSCLC
SK-MEL-2 melanoma = system: SK-MEL-2 melanoma
LOX IMVI melanoma = system: LOX IMVI melanoma
M14 melanoma = system: M14 melanoma
SK-OV-3 ovarian = system: SK-OV-3 ovarian
HCT-116 colon = system: HCT-116 colon
KM20L2 colon = system: KM20L2 colon
OVCAR-5 ovarian = system: OVCAR-5 ovarian
OVCAR-3 ovarian = system: OVCAR-3 ovarian
UACC-62 melanoma = system: UACC-62 melanoma
SK-MEL-28 melanoma = system: SK-MEL-28 melanoma
RXF 393 renal = system: RXF 393 renal
HOP-18 NSCLC = system: HOP-18 NSCLC
UACC-257 melanoma = system: UACC-257 melanoma
786-0 renal = system: 786-0 renal
SF-539 CNS = system: SF-539 CNS
LXFL 529 NSCLC = system: LXFL 529 NSCLC
ACHN renal = system: ACHN renal
TK-10 renal = system: TK-10 renal
HCT-15 colon = system: HCT-15 colon
UO-31 renal = system: UO-31 renal
K-562 leukemia = system: K-562 leukemia
M19-MEL melanoma = system: M19-MEL melanoma
A549 NSCLC = system: A549 NSCLC
CCRF-CEM leukemia = system: CCRF-CEM leukemia
CAKI-1 renal = system: CAKI-1 renal
RPMI-8226 leukemia = system: RPMI-8226 leukemia
SNB-19 CNS = system: SNB-19 CNS
HCC-2998 colon = system: HCC-2998 colon

O=c1[nH]c(Br)nc2c(Br)c[nH]c12
TGI (HT29 colon): > 100 µM
TGI (IGROV1 ovarian): > 100 µM
TGI (SF-295 CNS): > 100 µM
TGI (MALME-3M melanoma): > 100 µM
TGI (EKVX NSCLC): > 100 µM
TGI (NCI-H522 lung): > 100 µM
TGI (SK-MEL-5 melanoma): > 100 µM
TGI (SN12C renal): > 100 µM
TGI (OVCAR-4 ovarian): > 100 µM
TGI (NCI-H23 lung): > 100 µM
TGI (COLO 205 colon): > 100 µM
TGI (SNB-75 CNS): > 100 µM
TGI (RXF-631 renal): > 100 µM
TGI (SW-620 colon): > 100 µM
TGI (HOP-92 NSCLC): > 100 µM
TGI (A498 renal): > 100 µM
TGI (NCI-H226 lung): > 100 µM
TGI (DLD-1 colon): > 100 µM
TGI (U251 CNS): > 100 µM
TGI (KM12 colon): > 100 µM
TGI (DMS 273 small cell lung): > 100 µM
TGI (SF-268 CNS): > 100 µM
TGI (DMS 114 small cell lung): > 100 µM
TGI (MOLT-4 leukemia): > 100 µM
TGI (XF 498 CNS): > 100 µM
TGI (SNB-78 CNS): > 100 µM
TGI (OVCAR-8 ovarian): > 100 µM
TGI (HL-60(TB) leukemia): > 100 µM
TGI (NCI-H460 lung): > 100 µM
TGI (HOP-62 NSCLC): > 100 µM
TGI (SK-MEL-2 melanoma): > 100 µM
TGI (LOX IMVI melanoma): > 100 µM
TGI (M14 melanoma): > 100 µM
TGI (SK-OV-3 ovarian): > 100 µM
TGI (HCT-116 colon): > 100 µM
TGI (KM20L2 colon): > 100 µM
TGI (OVCAR-5 ovarian): > 100 µM
TGI (OVCAR-3 ovarian): > 100 µM
TGI (UACC-62 melanoma): > 100 µM
TGI (SK-MEL-28 melanoma): > 100 µM
TGI (RXF 393 renal): > 100 µM
TGI (HOP-18 NSCLC): > 100 µM
TGI (UACC-257 melanoma): > 100 µM
TGI (786-0 renal): > 100 µM
TGI (SF-539 CNS): > 100 µM
TGI (LXFL 529 NSCLC): > 100 µM
TGI (ACHN renal): > 100 µM
TGI (TK-10 renal): > 100 µM
TGI (HCT-15 colon): > 100 µM
TGI (UO-31 renal): > 100 µM
TGI (K-562 leukemia): > 100 µM
TGI (M19-MEL melanoma): > 100 µM
TGI (A549 NSCLC): > 100 µM
TGI (CCRF-CEM leukemia): > 100 µM
TGI (CAKI-1 renal): > 100 µM
TGI (RPMI-8226 leukemia): > 100 µM
TGI (SNB-19 CNS): > 100 µM

CC1=CC(C)(C)N=C2SC(c3ccc(Cl)cc3)=NN12
TGI (HT29 colon): 38.7 µM
TGI (IGROV1 ovarian): > 100 µM
TGI (SF-295 CNS): > 100 µM
TGI (MALME-3M melanoma): 75.6 µM
TGI (EKVX NSCLC): > 100 µM
TGI (NCI-H522 lung): 46.4 µM
TGI (SK-MEL-5 melanoma): 33.9 µM
TGI (OVCAR-4 ovarian): > 100 µM
TGI (NCI-H23 lung): 81.5 µM
TGI (HCC-2998 colon): > 100 µM
TGI (COLO 205 colon): > 100 µM
TGI (SW-620 colon): > 100 µM
TGI (HOP-92 NSCLC): 61.5 µM
TGI (A498 renal): 83.6 µM
TGI (NCI-H226 lung): 55.4 µM
TGI (DLD-1 colon): 58.1 µM
TGI (U251 CNS): 90.9 µM
TGI (KM12 colon): > 100 µM
TGI (DMS 273 small cell lung): > 100 µM
TGI (SF-268 CNS): > 100 µM
TGI (DMS 114 small cell lung): > 100 µM
TGI (MOLT-4 leukemia): 51 µM
TGI (XF 498 CNS): 51.8 µM
TGI (SNB-78 CNS): > 100 µM
TGI (HL-60(TB) leukemia): 32.5 µM
TGI (NCI-H460 lung): > 100 µM
TGI (HOP-62 NSCLC): > 100 µM
TGI (SK-MEL-2 melanoma): > 100 µM
TGI (LOX IMVI melanoma): > 100 µM
TGI (M14 melanoma): > 100 µM
TGI (SK-OV-3 ovarian): > 100 µM
TGI (KM20L2 colon): > 100 µM
TGI (OVCAR-5 ovarian): 53.7 µM
TGI (OVCAR-3 ovarian): 92.1 µM
TGI (UACC-62 melanoma): > 100 µM
TGI (SK-MEL-28 melanoma): > 100 µM
TGI (HOP-18 NSCLC): 80.5 µM
TGI (UACC-257 melanoma): > 100 µM
TGI (786-0 renal): 32.8 µM
TGI (SF-539 CNS): > 100 µM
TGI (LXFL 529 NSCLC): > 100 µM
TGI (ACHN renal): > 100 µM
TGI (TK-10 renal): > 100 µM
TGI (HCT-15 colon): > 100 µM
TGI (UO-31 renal): 50.4 µM
TGI (K-562 leukemia): > 100 µM
TGI (M19-MEL melanoma): > 100 µM
TGI (A549 NSCLC): > 100 µM
TGI (CCRF-CEM leukemia): > 100 µM
TGI (CAKI-1 renal): > 100 µM
TGI (RPMI-8226 leukemia): 49.8 µM
TGI (SNB-19 CNS): > 100 µM

CC(C)C(=O)N[C@@H](C)C(=O)N(Cc1ccc2ccccc2c1)N=O
TGI (HT29 colon): > 100 µM
TGI (IGROV1 ovarian): > 100 µM
TGI (SF-295 CNS): > 100 µM
TGI (MALME-3M melanoma): > 100 µM
TGI (EKVX NSCLC): > 100 µM
TGI (SK-MEL-5 melanoma): > 100 µM
TGI (SN12C renal): > 100 µM
TGI (OVCAR-4 ovarian): > 100 µM
TGI (HCC-2998 colon): > 100 µM
TGI (COLO 205 colon): > 100 µM
TGI (SNB-75 CNS): > 100 µM
TGI (SW-620 colon): > 100 µM
TGI (A498 renal): > 100 µM
TGI (DLD-1 colon): > 100 µM
TGI (U251 CNS): > 100 µM
TGI (DMS 273 small cell lung): > 100 µM
TGI (SF-268 CNS): > 100 µM
TGI (DMS 114 small cell lung): > 100 µM
TGI (MOLT-4 leukemia): > 100 µM
TGI (XF 498 CNS): > 100 µM
TGI (SNB-78 CNS): > 100 µM
TGI (OVCAR-8 ovarian): > 100 µM
TGI (NCI-H460 lung): > 100 µM
TGI (HOP-62 NSCLC): > 100 µM
TGI (SK-MEL-2 melanoma): > 100 µM
TGI (LOX IMVI melanoma): > 100 µM
TGI (M14 melanoma): > 100 µM
TGI (SK-OV-3 ovarian): > 100 µM
TGI (HCT-116 colon): > 100 µM
TGI (KM20L2 colon): > 100 µM
TGI (OVCAR-5 ovarian): > 100 µM
TGI (OVCAR-3 ovarian): > 100 µM
TGI (UACC-62 melanoma): > 100 µM
TGI (SK-MEL-28 melanoma): > 100 µM
TGI (HOP-18 NSCLC): 0.0979 µM
TGI (UACC-257 melanoma): > 100 µM
TGI (786-0 renal): > 100 µM
TGI (SF-539 CNS): > 100 µM
TGI (LXFL 529 NSCLC): > 100 µM
TGI (ACHN renal): > 100 µM
TGI (TK-10 renal): > 100 µM
TGI (HCT-15 colon): > 100 µM
TGI (UO-31 renal): > 100 µM
TGI (K-562 leukemia): > 100 µM
TGI (M19-MEL melanoma): > 100 µM
TGI (A549 NSCLC): > 100 µM
TGI (CCRF-CEM leukemia): > 100 µM
TGI (CAKI-1 renal): > 100 µM
TGI (RPMI-8226 leukemia): > 100 µM
TGI (SNB-19 CNS): > 100 µM
